Patent US20030092638A1, “Protopanaxadiol and protopanaxatriol and their use as anti-cancer agents” (priority 2001, published 2003)
Read-outs that look alike come from different tables or passages of the source.

How the values were obtained:
MCF7r cells [1] = conditions: MCF7r (drug resistant)
Procedure: (§1) Cells were either treated with various concentrations of paclitexal alone or in the presence of 20 μg/ml Rh2, 6 μg/ml PPT or PPD.

MCF7 cells [2] = conditions: MCF7 (drug sensitive)
Procedure: as §1

MCF7r cells [3] = assay: cells; conditions: Homo sapiens, read-out: IC50 of taxol
Procedure: as §1

MCF7 cells [4] = assay: cells; conditions: Homo sapiens, MCF7, read-out: IC50 of taxol
Procedure: as §1

Procedure for B16 melanoma tumor cells: Cells were treated with various concentrations of the compounds and the viability was measured 24 hours post treatment.

SMILES	Enhancement of IC50 of taxol versus taxol only (MCF7r cells [1]; compound at 6 μg/ml)	Enhancement of IC50 of taxol versus taxol only (MCF7 cells [2]; compound at 6 μg/ml)	Tumor inhibitory effect (cytotoxicity) compared with Rh2 (B16 melanoma tumor cells)	Enhancement of IC50 of taxol versus taxol only (MCF7r cells [1]; compound at 20 μg/ml)	Enhancement of IC50 of taxol versus taxol only (MCF7 cells [2]; compound at 20 μg/ml)	IC50 (MCF7r cells [3])	IC50 (MCF7 cells [4])
CC(C)=CCCC(C)(O)[C@H]1CC[C@]2(C)[C@@H]1[C@H](O)C[C@@H]1[C@@]3(C)CC[C@H](O)C(C)(C)[C@@H]3CC[C@]12C (stereo in doubt) [Protopanaxadiol, protopanaxadiol]	(29517 fold	(18 fold	more potent tumor inhibitory effect than Rh2				
CC(C)=CCC[C@](C)(O)[C@H]1CC[C@]2(C)[C@@H]1[C@H](O)C[C@@H]1[C@@]3(C)CC[C@H](O[C@@H]4O[C@H](CO)[C@@H](O)[C@H](O)[C@H]4O)C(C)(C)[C@@H]3CC[C@]12C [Rh2, 3-O-β-D-glucopyranosyl-20(s)-protopanaxadiol, reference compound]				(4470 fold	(3.65 fold		
CC(=O)O[C@H]1C(=O)[C@@]2(C)[C@H]([C@H](OC(=O)c3ccccc3)[C@]3(O)C[C@H](OC(=O)[C@H](O)[C@@H](NC(=O)c4ccccc4)c4ccccc4)C(C)=C1C3(C)C)[C@]1(OC(C)=O)CO[C@@H]1C[C@@H]2O [Taxol, paclitaxel]						0.93 µM	0.225 µM
CC(C)=CCC[C@](C)(O)[C@H]1CC[C@]2(C)[C@@H]1[C@H](O)C[C@@H]1[C@@]3(C)CC[C@H](O)C(C)(C)[C@@H]3[C@@H](O)C[C@]12C [Protopanaxatrial, protopanaxatriol]	(1744 fold	(4.9 fold	more potent tumor inhibitory effect than Rh2				
